According to patent publication US12281149B2, “Modulators of G-protein coupled receptors” (priority 2021, dated 2025):
*1 amine or outer side, *2 acyl side, *3 side chain or, on linkers, in order; H or OH if unused. Where a SMILES comes first, the peptide text is derived from it. Side-chain parts run from the residue outwards. [ ]: non-standard residue; d: D form. The star is where a group is joined. Isobutyryl(2-(3-CN-5-F-Ph)) = CC(C)(C(=O)*)c1cc(F)cc(C#N)c1; C20 diacid = O=C(O)CCCCCCCCCCCCCCCCCCC(=O)*; γGlu = O=C(O)[C@H](CCC(=O)[*:2])N[*:1]; X84 = O=C([C@H]1CCCN([*:1])C1)[*:2]; X59 = COc1ccc(C2(C(=O)*)CCCC2)cc1; X55 = COc1cccc(C(C)(C)C(=O)*)c1; X30 = CC(C)(C(=O)*)c1ccc(F)cc1; X41 = C[C@H](C(=O)*)c1ccccc1; AEEA = NCCOCCOCC(=O)O; Aib = CC(C)(N)C(=O)O; βAla = NCCC(=O)O

Legend:
Type in all cases: cell-based
GLP-1 receptor [1] = target: T1, GLP-1 receptor (Homo sapiens, UniProt P43220); test: HitHunter cAMP assay, GLP-1 receptor; conditions: for EC50: CHO cells stably expressing human GLP-1 receptor, cAMP accumulation, 30 min, read-out: EC50 GLP-1R; for Emax: CHO cells, cAMP, normalized to maximum signal from GLP-1 (high) and DMSO (low), read-out: Emax GLP-1R
GIP receptor [2] = target: T2, GIP receptor (Homo sapiens, UniProt P48546); test: HitHunter cAMP assay, GIP receptor; conditions: for EC50: CHO cells stably expressing GIP receptor, cAMP accumulation, 30 min, read-out: EC50 GIP-1R; for Emax: CHO cells, cAMP, normalized to maximum signal from GIP (high) and DMSO (low), read-out: Emax GIP-1R
T2 sequence (P48546 22-466): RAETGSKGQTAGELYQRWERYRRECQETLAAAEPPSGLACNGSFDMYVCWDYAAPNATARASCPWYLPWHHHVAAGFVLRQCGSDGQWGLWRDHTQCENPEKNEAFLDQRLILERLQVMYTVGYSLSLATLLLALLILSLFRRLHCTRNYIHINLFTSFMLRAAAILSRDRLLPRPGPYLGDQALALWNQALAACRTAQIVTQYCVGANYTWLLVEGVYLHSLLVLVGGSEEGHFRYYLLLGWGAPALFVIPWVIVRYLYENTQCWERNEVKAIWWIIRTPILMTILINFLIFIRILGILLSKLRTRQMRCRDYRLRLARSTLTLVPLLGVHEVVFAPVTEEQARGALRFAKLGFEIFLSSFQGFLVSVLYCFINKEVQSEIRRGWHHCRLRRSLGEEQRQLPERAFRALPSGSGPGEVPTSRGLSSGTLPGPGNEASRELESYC

GIP receptor [3] = target: T2, GIP receptor; test: PathHunter β-arrestin assay, GIP receptor; set-up: host or cells: PathHunter CHO-K1 GIPR β-Arrestin Cell Line; conditions: β-arrestin-2 recruitment, PathHunter CHO-K1 GIPR β-Arrestin Cell Line, 90 min at 37° C.; normalized to GIP; read-out: GIPR β Arrestin EC50
GLP-1 receptor [4] = target: T1, GLP-1 receptor; test: PathHunter β-arrestin assay, GLP-1 receptor; set-up: host or cells: PathHunter CHO-K1 GLP1R β-Arrestin Cell Line; conditions: β-arrestin-2 recruitment, PathHunter CHO-K1 GLP1R β-Arrestin Cell Line, 90 min at 37° C.; normalized to GLP-1; read-out: GLP-1R β Arrestin EC50

T1 sequence (P43220 24-463): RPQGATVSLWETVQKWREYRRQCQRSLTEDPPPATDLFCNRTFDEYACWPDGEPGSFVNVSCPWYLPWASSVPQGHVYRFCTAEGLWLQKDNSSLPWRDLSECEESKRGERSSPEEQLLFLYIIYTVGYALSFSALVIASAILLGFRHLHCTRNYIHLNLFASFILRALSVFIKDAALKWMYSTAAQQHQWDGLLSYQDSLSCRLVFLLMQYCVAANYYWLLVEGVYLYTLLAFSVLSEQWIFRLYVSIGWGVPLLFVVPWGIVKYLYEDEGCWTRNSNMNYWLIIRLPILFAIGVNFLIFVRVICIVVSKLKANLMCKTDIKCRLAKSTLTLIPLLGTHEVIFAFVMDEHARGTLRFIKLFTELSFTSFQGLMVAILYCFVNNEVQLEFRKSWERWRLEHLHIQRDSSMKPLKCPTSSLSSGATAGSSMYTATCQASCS

| Structure (SMILES) | EC50 (GLP-1 receptor [1]) [µM] | Emax (GLP-1 receptor [1]) [%] | EC50 (GIP receptor [2]) [µM] | Emax (GIP receptor [2]) [%] | EC50 (GIP receptor [3]) [µM] | EC50 (GLP-1 receptor [4]) [µM] |
| --- | --- | --- | --- | --- | --- | --- |
| CC[C@H](C)[C@H](NC(=O)[C@H](CC(C)C)NC(=O)[C@H](Cc1c[nH]c2ccccc12)NC(=O)[C@H](CCC(N)=O)NC(=O)[C@@H](NC(=O)[C@H](Cc1ccccc1)NC(=O)[C@H](C)NC(=O)[C@H](CCCCNC(=O)COCCOCCNC(=O)COCCOCCNC(=O)CC[C@H](NC(=O)CCCCCCCCCCCCCCCCCCC(=O)O)C(=O)O)NC(=O)[C@H](CCC(N)=O)NC(=O)[C@H](C)NC(=O)[C@@H](NC(=O)[C@H](CCCCN)NC(=O)[C@H](CC(=O)O)NC(=O)[C@H](CC(C)C)NC(=O)C(C)(C)NC(=O)[C@@H](NC(=O)[C@H](CO)NC(=O)[C@H](Cc1ccc(O)cc1)NC(=O)[C@H](CC(=O)O)NC(=O)[C@H](CO)NC(=O)[C@@H](NC(=O)[C@H](Cc1ccccc1)NC(=O)[C@@H](NC(=O)CNC(=O)[C@H](CCC(=O)O)NC(=O)CCNC(=O)C1(c2ccc(OC)cc2)CCCC1)[C@@H](C)O)[C@@H](C)O)[C@@H](C)CC)[C@@H](C)CC)C(C)C)C(=O)N[C@@H](C)C(=O)NCC(=O)NCC(=O)N1CCC[C@H]1C(=O)N[C@@H](CO)C(=O)N[C@@H](CO)C(=O)NCC(=O)N[C@@H](C)C(=O)N1CCC[C@H]1C(=O)N1CCC[C@H]1C(=O)N1CCC[C@H]1C(=O)N[C@@H](CO)C(N)=O [Compound 208] ({X59-βAla}-EGTFTSDYSI[Aib]LDKIAQK([AEEA-AEEA-γGlu-C20 diacid])AFVQWLIAGGPSSGAPPPS-NH2) | 0.001 to 0.01 | 111 | 0.001 to 0.01 | 109 | < 1 | > 1 |
| CC[C@H](C)[C@H](NC(=O)[C@H](CC(C)C)NC(=O)[C@H](Cc1c[nH]c2ccccc12)NC(=O)[C@H](CCC(N)=O)NC(=O)[C@@H](NC(=O)[C@H](Cc1ccccc1)NC(=O)[C@H](C)NC(=O)[C@H](CCCCNC(=O)COCCOCCNC(=O)COCCOCCNC(=O)CC[C@H](NC(=O)CCCCCCCCCCCCCCCCCCC(=O)O)C(=O)O)NC(=O)[C@H](CCC(N)=O)NC(=O)[C@H](C)NC(=O)[C@@H](NC(=O)[C@H](CCCCN)NC(=O)[C@H](CC(=O)O)NC(=O)[C@H](CC(C)C)NC(=O)C(C)(C)NC(=O)[C@@H](NC(=O)[C@H](CO)NC(=O)[C@H](Cc1ccc(O)cc1)NC(=O)[C@H](CC(=O)O)NC(=O)[C@H](CO)NC(=O)[C@@H](NC(=O)[C@H](Cc1ccccc1)NC(=O)[C@@H](NC(=O)CNC(=O)[C@H](CCC(=O)O)NC(=O)CCNC(=O)C(C)(C)c1cccc(OC)c1)[C@@H](C)O)[C@@H](C)O)[C@@H](C)CC)[C@@H](C)CC)C(C)C)C(=O)N[C@@H](C)C(=O)NCC(=O)NCC(=O)N1CCC[C@H]1C(=O)N[C@@H](CO)C(=O)N[C@@H](CO)C(=O)NCC(=O)N[C@@H](C)C(=O)N1CCC[C@H]1C(=O)N1CCC[C@H]1C(=O)N1CCC[C@H]1C(=O)N[C@@H](CO)C(N)=O [Compound 209] ({X55-βAla}-EGTFTSDYSI[Aib]LDKIAQK([AEEA-AEEA-γGlu-C20 diacid])AFVQWLIAGGPSSGAPPPS-NH2) | 0.0001 to 0.001 | 101 | 0.01 to 0.1 | 105 | > 1 | > 1 |
| CC[C@H](C)[C@H](NC(=O)[C@H](CC(C)C)NC(=O)[C@H](Cc1c[nH]c2ccccc12)NC(=O)[C@H](CCC(N)=O)NC(=O)[C@@H](NC(=O)[C@H](Cc1ccccc1)NC(=O)[C@H](C)NC(=O)[C@H](CCCCNC(=O)COCCOCCNC(=O)COCCOCCNC(=O)CC[C@H](NC(=O)CCCCCCCCCCCCCCCCCCC(=O)O)C(=O)O)NC(=O)[C@H](CCC(N)=O)NC(=O)[C@H](C)NC(=O)[C@@H](NC(=O)[C@H](CCCCN)NC(=O)[C@H](CC(=O)O)NC(=O)[C@H](CC(C)C)NC(=O)C(C)(C)NC(=O)[C@@H](NC(=O)[C@H](CO)NC(=O)[C@H](Cc1ccc(O)cc1)NC(=O)[C@H](CC(=O)O)NC(=O)[C@H](CO)NC(=O)[C@@H](NC(=O)[C@H](Cc1ccccc1)NC(=O)[C@@H](NC(=O)CNC(=O)[C@H](CCC(=O)O)NC(=O)CCNC(=O)C(C)(C)c1ccc(F)cc1)[C@@H](C)O)[C@@H](C)O)[C@@H](C)CC)[C@@H](C)CC)C(C)C)C(=O)N[C@@H](C)C(=O)NCC(=O)NCC(=O)N1CCC[C@H]1C(=O)N[C@@H](CO)C(=O)N[C@@H](CO)C(=O)NCC(=O)N[C@@H](C)C(=O)N1CCC[C@H]1C(=O)N1CCC[C@H]1C(=O)N1CCC[C@H]1C(=O)N[C@@H](CO)C(N)=O [Compound 210] ({X30-βAla}-EGTFTSDYSI[Aib]LDKIAQK([AEEA-AEEA-γGlu-C20 diacid])AFVQWLIAGGPSSGAPPPS-NH2) | 0.0001 to 0.001 | 104 | 0.001 to 0.01 | 101 | > 1 | > 1 |
| CC[C@H](C)[C@H](NC(=O)[C@H](CC(C)C)NC(=O)[C@H](Cc1c[nH]c2ccccc12)NC(=O)[C@H](CCC(N)=O)NC(=O)[C@@H](NC(=O)[C@H](Cc1ccccc1)NC(=O)[C@H](C)NC(=O)[C@H](CCCCNC(=O)COCCOCCNC(=O)COCCOCCNC(=O)CC[C@H](NC(=O)CCCCCCCCCCCCCCCCCCC(=O)O)C(=O)O)NC(=O)[C@H](CCC(N)=O)NC(=O)[C@H](C)NC(=O)[C@@H](NC(=O)[C@H](CCCCN)NC(=O)[C@H](CC(=O)O)NC(=O)[C@H](CC(C)C)NC(=O)C(C)(C)NC(=O)[C@@H](NC(=O)[C@H](CO)NC(=O)[C@H](Cc1ccc(O)cc1)NC(=O)[C@H](CC(=O)O)NC(=O)[C@H](CO)NC(=O)[C@@H](NC(=O)[C@H](Cc1ccccc1)NC(=O)[C@@H](NC(=O)CNC(=O)[C@H](CCC(=O)O)NC(=O)CCNC(=O)[C@@H](C)c1ccccc1)[C@@H](C)O)[C@@H](C)O)[C@@H](C)CC)[C@@H](C)CC)C(C)C)C(=O)N[C@@H](C)C(=O)NCC(=O)NCC(=O)N1CCC[C@H]1C(=O)N[C@@H](CO)C(=O)N[C@@H](CO)C(=O)NCC(=O)N[C@@H](C)C(=O)N1CCC[C@H]1C(=O)N1CCC[C@H]1C(=O)N1CCC[C@H]1C(=O)N[C@@H](CO)C(N)=O [Compound 211] ({X41-βAla}-EGTFTSDYSI[Aib]LDKIAQK([AEEA-AEEA-γGlu-C20 diacid])AFVQWLIAGGPSSGAPPPS-NH2) | 0.0001 to 0.001 | 107 | 0.01 to 0.1 | 103 | > 1 | > 1 |
| CC[C@H](C)[C@H](NC(=O)[C@H](CC(C)C)NC(=O)[C@H](Cc1c[nH]c2ccccc12)NC(=O)[C@H](CCC(N)=O)NC(=O)[C@@H](NC(=O)[C@H](Cc1ccccc1)NC(=O)[C@H](C)NC(=O)[C@H](CCCCNC(=O)COCCOCCNC(=O)COCCOCCNC(=O)CC[C@H](NC(=O)CCCCCCCCCCCCCCCCCCC(=O)O)C(=O)O)NC(=O)[C@H](CCC(N)=O)NC(=O)[C@H](C)NC(=O)[C@@H](NC(=O)[C@H](CCCCN)NC(=O)[C@H](CC(=O)O)NC(=O)[C@H](CC(C)C)NC(=O)C(C)(C)NC(=O)[C@@H](NC(=O)[C@H](CO)NC(=O)[C@H](Cc1ccc(O)cc1)NC(=O)[C@H](CC(=O)O)NC(=O)[C@H](CO)NC(=O)[C@@H](NC(=O)[C@H](Cc1ccccc1)NC(=O)[C@@H](NC(=O)CNC(=O)[C@H](CCC(=O)O)NC(=O)[C@H]1CCCN(C(=O)C(C)(C)c2cc(F)cc(C#N)c2)C1)[C@@H](C)O)[C@@H](C)O)[C@@H](C)CC)[C@@H](C)CC)C(C)C)C(=O)N[C@@H](C)C(=O)NCC(=O)NCC(=O)N1CCC[C@H]1C(=O)N[C@@H](CO)C(=O)N[C@@H](CO)C(=O)NCC(=O)N[C@@H](C)C(=O)N1CCC[C@H]1C(=O)N1CCC[C@H]1C(=O)N1CCC[C@H]1C(=O)N[C@@H](CO)C(N)=O [Compound 212] ({Isobutyryl(2-(3-CN-5-F-Ph))}-[X84]EGTFTSDYSI[Aib]LDKIAQK([AEEA-AEEA-γGlu-C20 diacid])AFVQWLIAGGPSSGAPPPS-NH2) | 0.01 to 0.1 | 89 | > 1 |  | > 1 | > 1 |
